# US11897931B2, “MANP analogues” (Mayo Foundation for Medical Education and Research, priority 2016, dated 2024)
# Read-outs that look alike come from different tables or passages of the source. Bridges are numbered along the chain shown (N, C = ends). Where no end group is shown, it is not given here. [ ]: non-standard residue; d: D form.
# Tests used:
# [1] = test system: normal dogs; settings: cited from earlier work
# [2] = test system: Spontaneously hypertensive rats (SHRs); test: Acute IV MANP in spontaneously hypertensive rats: BP, plasma and urinary cGMP, natriuresis; assay type: in vivo, rat; settings: acute IV administration
# Method: FIGS. 2A-2E are a series of graphs plotting the effect of MANP, administered intravenously at the indicated doses, on mean arterial pressure (FIG. 2A), cGMP levels in plasma (FIG. 2B) and urine (FIG. 2C), distal tubule sodium reabsorption (FIG. 2D), and urinary sodium excretion (FIG. 2E) in spontaneously hypertensive rats.
# Spontaneously hypertensive rats (SHRs) were injected with intravenous (IV) MANP or vehicle, and BP, plasma and urinary cGMP, and natriuretic effects were determined.
# [3] = target: T1, pGC-A (Homo sapiens, UniProt P16066); test: cGMP generation in HEK293 cells overexpressing pGC-A; assay type: cell-based
# T1 construct: host or cells: HEK293
# T1 sequence (P16066 33-1061): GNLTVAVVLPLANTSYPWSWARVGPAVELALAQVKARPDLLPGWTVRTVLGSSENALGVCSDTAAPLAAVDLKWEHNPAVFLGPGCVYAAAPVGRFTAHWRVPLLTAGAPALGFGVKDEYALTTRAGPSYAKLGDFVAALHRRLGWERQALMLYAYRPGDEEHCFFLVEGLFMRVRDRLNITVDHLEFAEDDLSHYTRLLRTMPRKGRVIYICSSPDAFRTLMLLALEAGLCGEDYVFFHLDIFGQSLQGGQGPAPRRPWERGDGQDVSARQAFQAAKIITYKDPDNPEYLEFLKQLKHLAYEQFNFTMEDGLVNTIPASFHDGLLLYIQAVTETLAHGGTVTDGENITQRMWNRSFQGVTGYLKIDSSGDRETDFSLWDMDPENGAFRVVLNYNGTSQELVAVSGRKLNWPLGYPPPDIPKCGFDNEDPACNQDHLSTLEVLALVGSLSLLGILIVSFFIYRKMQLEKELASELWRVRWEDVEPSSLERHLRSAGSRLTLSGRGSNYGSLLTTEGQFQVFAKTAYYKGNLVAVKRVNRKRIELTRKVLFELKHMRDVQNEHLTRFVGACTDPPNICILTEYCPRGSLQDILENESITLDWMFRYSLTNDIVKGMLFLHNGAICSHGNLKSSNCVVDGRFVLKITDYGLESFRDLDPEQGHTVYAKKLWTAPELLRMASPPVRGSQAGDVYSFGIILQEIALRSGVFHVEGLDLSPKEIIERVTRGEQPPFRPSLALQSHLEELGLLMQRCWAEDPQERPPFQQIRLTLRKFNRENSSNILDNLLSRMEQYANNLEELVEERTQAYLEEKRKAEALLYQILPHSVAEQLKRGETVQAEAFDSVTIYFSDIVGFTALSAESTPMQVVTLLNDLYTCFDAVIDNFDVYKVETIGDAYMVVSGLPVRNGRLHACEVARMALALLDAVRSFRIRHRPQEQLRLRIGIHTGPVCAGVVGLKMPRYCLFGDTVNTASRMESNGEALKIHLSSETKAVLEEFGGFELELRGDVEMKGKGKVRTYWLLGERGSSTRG
# Method: For in vitro studies, five MANP variants were generated that contained substitutions within the N-terminal region. HEK293 cells overexpressing pGC-A were stimulated with MANP or the five variants (10^−8 M), and intracellular cGMP generation was measured.
# (§1) Additional in vitro experiments were conducted using an MANP variant having a tryptophan substitution for the leucine at position 2 of MANP (SWLRRSSCFGGRMDRI GAQSGLGCNSFRYRITA REDKQGWA; SEQ ID NO:15). Human pGC-A and pGC-B cDNA clones were purchased from Origene (Rockville, Md.). HEK293 cells were stably transfected with pGC-A or pGC-B cDNA using LIPOFECTAMINE® (Invitrogen; Grand Island, N.Y.). Transfected cells were maintained in Dulbecco's modified Eagle's medium supplemented with 10% fetal bovine serum, 100 U/ml penicillin, 100 […], and 250 ug/ml G418, and were plated in 6-well plates. pGC-A-transfected cells were treated with MANP or MANP2W, while pGC-B-transfected cells were treated with CNP or MANP2W. Cells were incubated in Hank's balanced salt solution (Invitrogen; Carlsbad, Calif.) containing 20 mmol/LN42-hydroxyethyllpiperazine-N′[2-ethanesulfonic acid], 0.1% bovine serum albumin, and 0.5 mmol/L 3-isobutyl-1-methylzanthine (Sigma; St. Louis, Mo.). Treated cells received 10^−6 M, 10^−8 M, or 10^−10 M of MANP, CNP, or MANP2W peptide for 10 minutes. […]
# [4] = test system: normal canine; test: In vivo MANP18 infusion study in a normal canine; settings: normal dog
# Method: FIGS. 5A-5G are graphs plotting the effect of MANP18 on mean arterial pressure (MAP; FIG. 5A), heart rate (FIG. 5B), pulmonary wedge capillary pressure (PWCP; FIG. 5C), cardiac output (FIG. 5D), renal blood flow (FIG. 5E), urine output (UV; FIG. 5F), and urinary sodium excretion (UNaV; FIG. 5G) in a normal dog. After a baseline (BL) clearance, MANP18 was infused with saline for a total of 45 minutes, which included a 15-minute lead-in period followed by a 30-minute clearance. After the peptide infusion was discontinued, and four, 30-minute clearances were performed [washout (Wo), recovery 1 (Rec1), recovery 2 (Rec2), and recovery 3 (Rec3)].
# FIGS. 6A-6G are graphs plotting the effect of MANP18 on plasma cGMP levels (FIG. 6A), urinary cGMP excretion (FIG. 6B), plasma ANP levels (FIG. 6C), urinary ANP excretion (FIG. 6D), plasma aldosterone levels (FIG. 6E), plasma renin activity (PRA; FIG. 6F), and plasma angiotensin II levels (ANGII; FIG. 6G) in a normal dog. Experiments were conducted as described for FIGS. 5A-5G).
# In vivo infusion studies were conducted using MANP18 in a normal canine. The night before the study, the dog was fasted. On the day of the experiment, the dog was anesthetized with pentobarbital sodium (15 mg/kg IV), intubated, and mechanically ventilated with supplemental oxygen (Harvard Respirator; Amersham, Mass.) at 12 cycles/minute. The femoral artery was cannulated for MAP monitoring and blood sampling, and the femoral vein was cannulated for saline infusion. Through a left lateral flank incision, the left kidney was exposed and the ureter was cannulated for urine sampling. Supplemental nonhypotensive doses of pentobarbital were administered as needed during the study. After 60 minutes of equilibrium, a baseline clearance was performed. All clearances consisted of urine collection over 30 minutes. Arterial blood sampling and hemodynamic measurements were measured midway through each clearance. After the baseline clearance, MANP18 was infused with saline at a dose of 33 pmol peptide/kg/min. The peptide was infused for a total of 45 minutes, which included a 15-minute lead-in period followed by a 30-minute clearance. The peptide infusion was then discontinued, and four 30-minute clearances were performed (washout, recovery 1, recovery 2, and recovery 3).
# [5] = target: T2, pGC-B (Homo sapiens, UniProt P20594); test: cGMP generation in HEK293 cells overexpressing pGC-B; assay type: cell-based; settings: 10^−6 M, 10^−8 M, or 10^−10 M peptide for 10 minutes, FIG. 7B
# T2 construct: host or cells: HEK293
# T2 sequence (P20594 23-1047): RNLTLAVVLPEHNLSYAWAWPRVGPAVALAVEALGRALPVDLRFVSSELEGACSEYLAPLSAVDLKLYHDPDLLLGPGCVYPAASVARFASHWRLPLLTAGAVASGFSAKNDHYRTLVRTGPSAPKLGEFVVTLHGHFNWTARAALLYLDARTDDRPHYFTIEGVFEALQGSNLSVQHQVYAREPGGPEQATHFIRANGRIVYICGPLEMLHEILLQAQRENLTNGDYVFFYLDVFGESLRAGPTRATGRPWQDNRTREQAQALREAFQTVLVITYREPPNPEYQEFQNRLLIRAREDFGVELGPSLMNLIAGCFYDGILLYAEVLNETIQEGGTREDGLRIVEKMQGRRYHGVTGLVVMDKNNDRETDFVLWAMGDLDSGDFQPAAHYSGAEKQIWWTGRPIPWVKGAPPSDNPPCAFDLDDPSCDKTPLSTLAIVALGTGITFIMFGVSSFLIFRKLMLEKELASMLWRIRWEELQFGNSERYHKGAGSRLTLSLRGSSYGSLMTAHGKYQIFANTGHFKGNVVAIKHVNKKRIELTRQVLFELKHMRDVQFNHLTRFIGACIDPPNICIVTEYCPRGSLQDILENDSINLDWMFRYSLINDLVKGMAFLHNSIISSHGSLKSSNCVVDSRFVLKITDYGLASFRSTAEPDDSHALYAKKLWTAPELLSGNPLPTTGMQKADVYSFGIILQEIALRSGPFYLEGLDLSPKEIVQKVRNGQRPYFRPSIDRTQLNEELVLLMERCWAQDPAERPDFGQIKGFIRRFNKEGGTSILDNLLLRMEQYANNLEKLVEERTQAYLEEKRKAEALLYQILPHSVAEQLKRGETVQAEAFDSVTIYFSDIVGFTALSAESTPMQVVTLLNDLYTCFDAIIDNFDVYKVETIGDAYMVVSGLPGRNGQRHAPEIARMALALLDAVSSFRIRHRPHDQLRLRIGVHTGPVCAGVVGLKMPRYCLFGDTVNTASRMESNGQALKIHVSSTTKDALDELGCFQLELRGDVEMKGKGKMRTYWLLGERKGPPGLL
# Method: as §1, with “minutes. After treatment, the cells were lysed in 300 ul 6% ice cold TCA and sonicated for 10 minutes, and the cell lysates were then centrifuged at 4° C., 12,000 g for 10 minutes.” for “minutes.”
# [6] = infusion of a high dose, compared to high dose of ANP
substance,measurement,setting,value
"SLRRSSCFGGRMDRIGAQSGLGCNSFRY (listed as Homo sapiens) [ANP, endogenous human mature atrial natriuretic peptide]",glomerular filtration rate (GFR),[1]; infusion of a low dose,No change
same,mean arterial pressure (MAP),[1]; infusion of a low dose,No change
SLRRSSCFGGRMDRIGAQSGLGCNSFRYRITAREDKQGWA (listed as Homo sapiens) [MANP],BP (mean arterial pressure),[2]; FIG. 2A,reduced BP
same,plasma cGMP generation,[2]; FIG. 2B,increased
same,urinary cGMP generation,[2]; FIG. 2C,increased
same,"natriuresis (distal tubule sodium reabsorption, urinary sodium excretion)",[2]; FIGS. 2D and 2E,induced natriuresis
same,diuretic and natriuretic effects compared with ANP,[1],greater diuretic and natriuretic effects than ANP
same,glomerular filtration rate (GFR),[1]; [6],increased GFR
same,mean arterial pressure (MAP),[1]; [6],decreased MAP
same,glomerular filtration rate (GFR),[1]; infusion of a low dose,No change
same,mean arterial pressure (MAP),[1]; infusion of a low dose,No change
same,effect on renal blood flow compared with ANP,[1]; low dose,greater effect than low dose ANP
"SLRRSSDformCFGGRMDRIGAQSGLGCNSFRYRITAREDKQGWA (SLRRS[dS]CFGGRMDRIGAQSGLGCNSFRYRITAREDKQGWA; disulfide 7-23 (inferred)) [MANP18, MANP with D-serine at the sixth position]",Potency vs. MANP,"[3]; intracellular cGMP generation, peptide 10^−8 M, HEK293 overexpressing pGC-A",=
same,blood pressure (mean arterial pressure),"[4]; 33 pmol peptide/kg/min infused 45 minutes, FIG. 5A",blood pressure lowering
same,cardiac output,"[4]; 33 pmol peptide/kg/min infused 45 minutes, FIG. 5D",cardiac output enhancing
same,natriuretic action (urinary sodium excretion),"[4]; 33 pmol peptide/kg/min infused 45 minutes, FIG. 5G",natriuretic actions
same,plasma aldosterone levels,"[4]; 33 pmol peptide/kg/min, FIG. 6E",temporarily depressed
same,plasma renin activity (PRA),"[4]; 33 pmol peptide/kg/min, FIG. 6F",temporarily depressed
same,plasma angiotensin II levels (ANGII),"[4]; 33 pmol peptide/kg/min, FIG. 6G",temporarily depressed
same,"cGMP (plasma cGMP levels, urinary cGMP excretion)","[4]; 33 pmol peptide/kg/min, FIGS. 6A and 6B",activated cGMP
same,"ANP levels (plasma ANP, urinary ANP excretion)","[4]; 33 pmol peptide/kg/min, FIGS. 6C and 6D",temporarily increased
"SWLRRSSCFGGRMDRI GAQSGLGCNSFRYRITA REDKQGWA (SWLRRSSCFGGRMDRIGAQSGLGCNSFRYRITAREDKQGWA) [MANP2W, MANP variant having a tryptophan substitution for the leucine at position 2 of MANP]",pGC-A activation (cGMP generation),"[3]; 10^−6 M, 10^−8 M, or 10^−10 M peptide for 10 minutes, FIG. 7A",selectively activated pGC-A
same,pGC-B activation (cGMP generation),[5],did not activate pGC-B
